Reference: ChEMBL document CHEMBL5625222, “Design, synthesis, and biological evaluation of 1,6-naphthyridine-2-one derivatives as novel FGFR4 inhibitors for the treatment of colorectal cancer” (Eur J Med Chem, 2023)
Calls of active or inactive are those of the source. The calls are words filed in the database; no cut-off is given here.

What was measured:
[1] = target: Fibroblast growth factor receptor 3 (Homo sapiens, UniProt P22607); assay: Inhibition of FGFR3 (unknown origin) kinase activity
[2] = Drug uptake in BALB/c mouse colon at 20 mg/kg,ip administrated for 2 hrs by LC-MS analysis; assay type: ADME, organism-based; details: in vivo
[3] = tested on: HCT-116; assay: Induction of cell cycle arrest in human HCT-116 cells assessed as accumulation of cells at G2/M phase incubated for 48 hrs by propidium iodide staining based flow cytometry; assay type: functional
[4] = tested on: RKO; assay: Induction of cell cycle arrest in human RKO cells assessed as downregulation of CDC2 expression at 1.5 to 6 uM by immunoblotting analysis; assay type: functional, cell-based; details: dose 1.5-6 µM
[5] = tested on: SW480; assay: Induction of apoptosis in human SW480 cells assessed as downregulation of ratio of Bcl-2/Bax expression at 3 to 12 uM incubated for 48 hrs by Western blotting analysis; assay type: functional, cell-based; details: dose 3-12 µM
[6] = tested on: SW480; assay: Anti-migration activity in human SW480 cells assessed as loss of actin cytoskeletal fibers at 3 to 12 uM by immunofluorescence assay; assay type: functional, cell-based; details: dose 3-12 µM
[7] = tested on: SW480; assay: Anti-migration activity in human SW480 cells assessed as upregulation of E-cad expression by Western blotting analysis; assay type: functional, cell-based
[8] = tested on: SW480; assay: Anti-migration activity in human SW480 cells assessed as downregulation of FAK phosphorylation by Western blotting analysis; assay type: functional, cell-based
[9] = tested on: SW480; assay: Anti-migration activity in human SW480 cells assessed as change in FAK expression at 3 to 12 uM by Western blotting analysis; assay type: functional, cell-based; details: dose 3-12 µM
[10] = tested on: RKO; assay: Anti-migration activity in human RKO cells assessed as change in FAK distribution at 3 to 12 uM by immunofluorescence assay; assay type: functional, cell-based; details: dose 3-12 µM
[11] = tested on: RKO; assay: Anti-migration activity in human RKO cells assessed as change in N-cad expression at 3 to 12 uM by Western blotting analysis; assay type: functional, cell-based; details: dose 3-12 µM
[12] = Toxicity in ICR mouse assessed as change in liver weight at 60 mg/kg,po administrated for 1 week; assay type: organism-based; details: in vivo, 168 h, time 1 weeks
[13] = Toxicity in ICR mouse assessed as change in lung weight at 20 mg/kg,po administrated for 1 week; assay type: organism-based; details: in vivo, 168 h, time 1 weeks
[14] = Toxicity in ICR mouse assessed as change in lung weight at 60 mg/kg,po administrated for 1 week; assay type: organism-based; details: in vivo, 168 h, time 1 weeks
[15] = Toxicity in ICR mouse assessed as change in kidney weight at 60 mg/kg,po administrated for 1 week; assay type: organism-based; details: in vivo, 168 h, time 1 weeks
[16] = Hepatotoxicity in ICR mouse assessed as change in serum AST level at 20 mg/kg,po administrated for 1 week; assay type: toxicity, organism-based; details: in vivo, 168 h, time 1 weeks
[17] = Hepatotoxicity in ICR mouse assessed as change in serum AST level at 60 mg/kg,po administrated for 1 week; assay type: toxicity, organism-based; details: in vivo, 168 h, time 1 weeks
[18] = Hepatotoxicity in ICR mouse assessed as change in serum ALT level at 20 mg/kg,po administrated for 1 week; assay type: toxicity, organism-based; details: in vivo, 168 h, time 1 weeks
[19] = Toxicity in BALB/c mouse xenografted with human HCT-116 cells assessed as change in heart weight at 20 mg/kg,ip administrated for 2 weeks; assay type: organism-based; details: in vivo, 336 h
[20] = Toxicity in BALB/c mouse xenografted with human HCT-116 cells assessed as change in lung weight at 10 mg/kg,ip administrated for 2 weeks; assay type: organism-based; details: in vivo, 336 h
[21] = tested on: HCT-116; assay: Antitumor activity against human HCT-116 cells xenografted in BALB/c mouse assessed as change in cell morphology at 10 mg/kg,ip administrated for 2 weeks by hematoxylin and eosin staining based analysis; assay type: functional, organism-based
[22] = Toxicity in BALB/c mouse xenografted with human HCT-116 cells assessed as histopathological change in liver at 20 mg/kg,ip administrated for 2 weeks by hematoxylin and eosin staining based analysis; assay type: organism-based; details: in vivo, 336 h
[23] = Toxicity in BALB/c mouse xenografted with human HCT-116 cells assessed as histopathological change in kidney at 10 mg/kg,ip administrated for 2 weeks by hematoxylin and eosin staining based analysis; assay type: organism-based; details: in vivo, 336 h
[24] = Toxicity in BALB/c mouse xenografted with human HCT-116 cells assessed as change in serum creatinine level at 20 mg/kg,ip administrated for 2 weeks; assay type: organism-based; details: in vivo, 336 h
[25] = Toxicity in BALB/c mouse xenografted with human HCT-116 cells assessed as change in serum AST level at 10 mg/kg,ip administrated for 2 weeks; assay type: organism-based; details: in vivo, 336 h
[26] = tested on: HCT-116; assay: Antitumor activity against human HCT-116 cells xenografted in BALB/c mouse assessed as decrease in Ki67 expression in tumor tissue at ip administrated for 2 weeks by immunohistochemical analysis; assay type: functional, organism-based
[27] = tested on: HCT-116; assay: Antitumor activity against human HCT-116 cells xenografted in BALB/c mouse assessed as decrease in CD68 expression in tumor tissue at ip administrated for 2 weeks by immunohistochemical analysis; assay type: functional, organism-based
[28] = tested on: HCT-116; assay: Antitumor activity against human HCT-116 cells xenografted in BALB/c mouse assessed as decrease in E-Cad expression in tumor tissue at ip administrated for 2 weeks by immunohistochemical analysis; assay type: functional, organism-based
[29] = tested on: RKO; assay: cells; details: Homo sapiens, 48 h
Description: Antiproliferative activity against human RKO cells assessed as inhibition of cell growth incubated for 48 hrs by MTT assay

Sequence of Fibroblast growth factor receptor 3 (P22607 whole entry): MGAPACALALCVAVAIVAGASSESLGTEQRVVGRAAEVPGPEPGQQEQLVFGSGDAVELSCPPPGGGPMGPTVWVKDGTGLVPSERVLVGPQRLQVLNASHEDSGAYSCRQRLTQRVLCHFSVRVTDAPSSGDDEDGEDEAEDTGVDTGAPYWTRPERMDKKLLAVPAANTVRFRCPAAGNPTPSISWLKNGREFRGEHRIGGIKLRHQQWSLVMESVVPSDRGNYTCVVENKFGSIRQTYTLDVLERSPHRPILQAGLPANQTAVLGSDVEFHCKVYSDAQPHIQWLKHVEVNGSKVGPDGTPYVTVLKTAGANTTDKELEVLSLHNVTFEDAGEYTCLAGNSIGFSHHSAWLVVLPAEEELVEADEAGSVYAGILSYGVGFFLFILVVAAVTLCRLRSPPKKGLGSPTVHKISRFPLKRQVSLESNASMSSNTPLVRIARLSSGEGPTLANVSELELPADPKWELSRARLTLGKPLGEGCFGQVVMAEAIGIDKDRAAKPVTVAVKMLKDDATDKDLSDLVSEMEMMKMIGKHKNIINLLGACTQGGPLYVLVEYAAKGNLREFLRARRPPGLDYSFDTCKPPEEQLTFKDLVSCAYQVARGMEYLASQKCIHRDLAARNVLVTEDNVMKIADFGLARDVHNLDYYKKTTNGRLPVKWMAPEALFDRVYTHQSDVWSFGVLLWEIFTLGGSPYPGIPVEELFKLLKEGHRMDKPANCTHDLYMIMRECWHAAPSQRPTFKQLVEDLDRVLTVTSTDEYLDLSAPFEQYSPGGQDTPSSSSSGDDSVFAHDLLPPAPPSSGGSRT

With `C=CC(=O)NCCCn1c(=O)c(-c2c(Cl)c(OC)cc(OC)c2Cl)cc2cnc(Nc3c(C)cccc3NC(=O)C=C)cc21` the IC50 [1] was 0.225 µM, the Drug uptake [2] was “Active” and the Activity [3] was “Dose-Dependent Effect”. The Activity [4] was “Active”, the Activity [5] was “Active” and the Activity [6] was “Active”. The Activity [7] was “Dose-Dependent Effect”, the Activity [8] was “Dose-Dependent Effect” and the Activity [9] was “inactive”. The Activity [10] was “Active”, the Activity [11] was “inactive” and the Activity [12] was “Non-Toxic”. The Activity [13] was “Non-Toxic”, the Activity [14] was “Non-Toxic” and the Activity [15] was “Non-Toxic”. For the same compound, the Activity [16] was “Non-Toxic”, the Activity [17] was “Non-Toxic” and the Activity [18] was “Non-Toxic”. The Activity [19] was “Non-Toxic”, the Activity [20] was “Non-Toxic” and the Activity [21] was “Active”. For the same compound, the Activity [22] was “Non-Toxic”, the Activity [23] was “Non-Toxic” and the Activity [24] was “Non-Toxic”. The Activity [25] was “Non-Toxic”, the Activity [26] was “Dose-Dependent Effect” and the Activity [27] was “Dose-Dependent Effect”. The Activity [28] was “Dose-Dependent Effect” and the IC50 [29] was 11.6 µM.
